Patent US9896441B2 (Lycera Corporation, priority 2014, dated 2018)

How the values were obtained:
RORγ-LBD = target: T1, RORγ-LBD (Homo sapiens, UniProt P51449); assay: RORγ-Ligand Binding Domain (LBD) TR-FRET Assay; format: biochemical; details: RORγ-LBD TR-FRET
T1 construct: made in house; host or cells: SF9 cells (baculovirus); used as diluted lysate
T1 sequence (P51449 269-508 limits assumed): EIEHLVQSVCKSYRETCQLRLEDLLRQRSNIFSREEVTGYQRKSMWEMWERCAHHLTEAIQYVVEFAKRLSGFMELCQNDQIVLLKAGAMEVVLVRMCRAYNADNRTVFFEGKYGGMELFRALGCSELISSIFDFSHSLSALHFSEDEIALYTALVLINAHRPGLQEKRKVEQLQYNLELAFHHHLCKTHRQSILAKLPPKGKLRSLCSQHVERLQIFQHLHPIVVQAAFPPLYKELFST
Summary of the method: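 His-tagged RORγ-LBD from SF9 baculovirus lysate, ~3 nM final, in 50 mM Tris pH 7.0, 50 mM KCl, 1 mM EDTA, 0.1 mM DTT, 0.01% BSA. Biotinylated SRC1 LXXLL peptide at 200 nM final with 2 μM ursolic acid; TR-FRET read-out, 1% DMSO final.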

Gal4-RORγ-LBD = target: T2, Gal4-RORγ-LBD (Homo sapiens, UniProt P51449); assay: Gal4-RORγ Luciferase Reporter Assay in HEK-293T Cells; format: cell-based; details: HEK-293 cells, luciferase reporter, with ursolic acid
T2 construct: expressed in transfected cells
T2 sequence (P51449 269-508 limits assumed): T1 sequence (P51449 269-508 limits assumed)
Summary of the method: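 HEK-293 cells were co-transfected with Gal4-RORγ-LBD and a Gal4-luciferase reporter, then exposed overnight at 37 °C to compounds with […] ursolic acid present (0.2% DMSO). Luminescence was read with One-Glo after 10 min at RT, untreated signal was set as 100, and Max Response was taken as the upper plateau of a 4-parameter logistic fit.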

Row | SMILES | EC50 (RORγ-LBD) [µM] | EC50 (Gal4-RORγ-LBD) [µM]
1 | O=C(O)CC[C@H]1CN(S(=O)(=O)c2cccc(OC(F)F)c2)c2cc(/C=C/c3ncccc3Cl)ccc2O1 [Example 89DT, (S,E)-3-(6-(2-(3-chloropyridin-2-yl)vinyl)-4-((3-(difluoromethoxy)phenyl)sulfonyl)-3,4-dihydro-2H-benzo[b][1,4]-oxazin-2-yl)propanoic acid] | < 0.5 | 0.5 to 5
2 | CCOc1ncc(C(F)(F)F)cc1S(=O)(=O)N1C[C@H](CCC(=O)O)Oc2ccc(/C=C/c3c(F)cccc3Cl)cc21 [Example 89DU, (S,E)-3-(6-(2-chloro-6-fluorostyryl)-4-((2-ethoxy-5-(trifluoromethyl)pyridin-3-yl)sulfonyl)-3,4-dihydro-2H-benzo[b][1,4]oxazin-2-yl)propanoic acid] | < 0.5 | 0.5 to 5
3 | CCOc1ncc(C(F)(F)F)cc1S(=O)(=O)N1C[C@H](CCC(=O)OC)Oc2ccc(/C=C/c3c(F)cccc3Cl)cc21 [Example 89DV, methyl (S,E)-3-(6-(2-chloro-6-fluorostyryl)-4-((2-ethoxy-5-(trifluoromethyl)pyridin-3-yl)sulfonyl)-3,4-dihydro-2H-benzo[b][1,4]oxazin-2-yl)propanoate] | < 0.5 | 0.5 to 5
4 | CCc1nc(S(=O)(=O)N2C[C@H](CCC(=O)O)Oc3ccc(/C=C/c4c(F)cccc4Cl)cc32)c[nH]1 [Example 89DW, (S,E)-3-(6-(2-chloro-6-fluorostyryl)-4-((2-ethyl-1H-imidazol-4-yl)sulfonyl)-3,4-dihydro-2H-benzo[b][1,4]-oxazin-2-yl)propanoic acid] | > 10 | > 10
5 | Cc1nn(C)c2ncc(S(=O)(=O)N3C[C@H](CCC(=O)O)Oc4ccc(/C=C/c5c(F)cccc5Cl)cc43)cc12 [Example 89DX, (S,E)-3-(6-(2-chloro-6-fluorostyryl)-4-((1,3-dimethyl-1H-pyrazolo[3,4-b]pyridin-5-yl)sulfonyl)-3,4-dihydro-2H-benzo[b][1,4]oxazin-2-yl)propanoic acid] | 0.5 to 5 | > 10
6 | CC(C)n1cnc(S(=O)(=O)N2C[C@H](CCC(=O)O)Oc3ccc(/C=C/c4c(F)cccc4Cl)cc32)c1 [Example 89DY, (S,E)-3-(6-(2-chloro-6-fluorostyryl)-4-((1-isopropyl-1H-imidazol-4-yl)sulfonyl)-3,4-dihydro-2H-benzo[b][1,4]-oxazin-2-yl)propanoic acid] | < 0.5 | 0.5 to 5
7 | Cn1cnc(S(=O)(=O)N2C[C@H](CCC(=O)O)Oc3ccc(/C=C/c4c(F)cccc4Cl)cc32)c1Cl [Example 89DZ, (S,E)-3-(4-((5-chloro-1-methyl-1H-imidazol-4-yl)sulfonyl)-6-(2-chloro-6-fluorostyryl)-3,4-dihydro-2H-benzo[b][1,4]-oxazin-2-yl)propanoic acid] | 0.5 to 5 | > 10
8 | CCOc1nn(CC)cc1S(=O)(=O)N1C[C@H](CCC(=O)O)Oc2ccc(/C=C/c3ccccn3)cc21 [Example 89E, (S,E)-3-(4-((3-ethoxy-1-ethyl-1H-pyrazol-4-yl)sulfonyl)-6-(2-(pyridin-2-yl)vinyl)-3,4-dihydro-2H-benzo[b][1,4]oxazin-2-yl)propanoic acid] | > 10 | > 10
9 | CCn1cc(S(=O)(=O)N2C[C@H](CCC(=O)O)Oc3ccc(/C=C/c4c(Cl)cccc4C(F)(F)F)cc32)c(OCCO)n1 [Example 89EA, (S,E)-3-(6-(2-chloro-6-(trifluoromethyl)styryl)-4-((1-ethyl-3-(2-hydroxyethoxy)-1H-pyrazol-4-yl)sulfonyl)-3,4-dihydro-2H-benzo[b][1,4]oxazin-2-yl)propanoic acid] | < 0.5 | < 0.5
10 | COC(=O)CC[C@H]1CN(S(=O)(=O)c2cc(C(F)(F)F)cnc2OCCO)c2cc(/C=C/c3c(F)cccc3Cl)ccc2O1 [Example 89EB, methyl (S,E)-3-(6-(2-chloro-6-fluorostyryl)-4-((2-(2-hydroxyethoxy)-5-(trifluoromethyl)-pyridin-3-yl)sulfonyl)-3,4-dihydro-2H-benzo[b][1,4]oxazin-2-yl)propanoate] | < 0.5 | < 0.5
11 | O=C(O)CC[C@H]1CN(S(=O)(=O)c2cc(C(F)(F)F)cnc2OCCO)c2cc(/C=C/c3c(F)cccc3Cl)ccc2O1 [Example 89EC, (S,E)-3-(6-(2-chloro-6-fluorostyryl)-4-((2-(2-hydroxyethoxy)-5-(trifluoromethyl)-pyridin-3-yl)sulfonyl)-3,4-dihydro-2H-benzo[b][1,4]oxazin-2-yl)propanoic acid] | < 0.5 | 0.5 to 5
12 | CC(C)n1cc(S(=O)(=O)N2C[C@H](CCC(=O)O)Oc3ccc(/C=C/c4c(Cl)cccc4C(F)(F)F)cc32)c(OCCO)n1 [Example 89ED, (S,E)-3-(6-(2-chloro-6-(trifluoromethyl)styryl)-4-((3-(2-hydroxyethoxy)-1-isopropyl-1H-pyrazol-4-yl)sulfonyl)-3,4-dihydro-2H-benzo[b][1,4]oxazin-2-yl)propanoic acid] | < 0.5 | < 0.5
13 | CCOc1nn(CC)cc1S(=O)(=O)N1C[C@H](CCC(=O)O)Oc2ccc(/C=C/c3ncccc3Cl)cc21 [Example 89EE, (S,E)-3-(6-(2-(3-chloropyridin-2-yl)vinyl)-4-((3-ethoxy-1-ethyl-1H-pyrazol-4-yl)sulfonyl)-3,4-dihydro-2H-benzo[b][1,4]oxazin-2-yl)propanoic acid] | < 0.5 | 0.5 to 5
14 | O=C(O)CC[C@H]1CN(S(=O)(=O)c2cn(CC(F)F)nc2OCCO)c2cc(/C=C/c3c(Cl)cccc3C(F)(F)F)ccc2O1 [Example 89EF, (S,E)-3-(6-(2-chloro-6-(trifluoromethyl)styryl)-4-((1-(2,2-difluoroethyl)-3-(2-hydroxyethoxy)-1H-pyrazol-4-yl)sulfonyl)-3,4-dihydro-2H-benzo[b][1,4]oxazin-2-yl)propanoic acid] | < 0.5 | < 0.5
15 | O=C(O)CC[C@H]1CN(S(=O)(=O)c2cn(C3CC3)nc2OCCO)c2cc(/C=C/c3c(Cl)cccc3C(F)(F)F)ccc2O1 [Example 89EG, (S,E)-3-(6-(2-chloro-6-(trifluoromethyl)styryl)-4-((1-cyclopropyl-3-(2-hydroxyethoxy)-1H-pyrazol-4-yl)sulfonyl)-3,4-dihydro-2H-benzo[b][1,4]oxazin-2-yl)propanoic acid] | < 0.5 | 0.5 to 5
16 | CCOc1nn(CC)cc1S(=O)(=O)N1C[C@H](CCC(=O)O)Oc2ccc(/C=C/c3c(Cl)cccc3C(F)F)cc21 [Example 89EH, (S,E)-3-(6-(2-chloro-6-(difluoromethyl)styryl)-4-((3-ethoxy-1-ethyl-1H-pyrazol-4-yl)sulfonyl)-3,4-dihydro-2H-benzo[b][1,4]oxazin-2-yl)propanoic acid] | < 0.5 | < 0.5
17 | CCOc1nn(CC)cc1S(=O)(=O)N1C[C@H](CCC(=O)OC)Oc2ccc(/C=C/c3c(Cl)cccc3C(F)F)cc21 [Example 89EI, methyl (S,E)-3-(6-(2-chloro-6-(difluoromethyl)styryl)-4-((3-ethoxy-1-ethyl-1H-pyrazol-4-yl)sulfonyl)-3,4-dihydro-2H-benzo[b][1,4]oxazin-2-yl)propanoate] | < 0.5 | < 0.5
